Legend:
Type in all cases: toxicity, cell-based
Fibroblast = assay: Incucyte cell viability with human fibroblast; conditions: 10 µM, compound concentration 10 uM
HEK-293T = assay: Incucyte cell viability with HEK293T; conditions: human, 10 µM, compound concentration 10 uM
U2OS = assay: Incucyte cell viability with U2OS; conditions: human, 10 µM, compound concentration 10 uM
Also: unitless GR value; below 1 slowed growth and below 0 cell loss.

| Structure (SMILES) | Growth Rate (Fibroblast; 0 h, replicate number 2) | Growth Rate (Fibroblast; 6 h, replicate number 1) | Growth Rate (Fibroblast; 6 h, replicate number 2) | Growth Rate (Fibroblast; 12 h, replicate number 1) | Growth Rate (Fibroblast; 12 h, replicate number 2) | Growth Rate (Fibroblast; 18 h, replicate number 2) | Growth Rate (Fibroblast; 24 h, replicate number 2) | Growth Rate (HEK-293T; 6 h, replicate number 1) | Growth Rate (HEK-293T; 6 h, replicate number 2) | Growth Rate (HEK-293T; 12 h, replicate number 1) | Growth Rate (HEK-293T; 12 h, replicate number 2) | Growth Rate (HEK-293T; 18 h, replicate number 2) | Growth Rate (HEK-293T; 24 h, replicate number 2) | Growth Rate (U2OS; 6 h, replicate number 1) | Growth Rate (U2OS; 6 h, replicate number 2) | Growth Rate (U2OS; 12 h, replicate number 1) | Growth Rate (U2OS; 12 h, replicate number 2) | Growth Rate (U2OS; 18 h, replicate number 2) | Growth Rate (U2OS; 24 h, replicate number 1) | Growth Rate (U2OS; 24 h, replicate number 2) | also measured |
| --- | --- | --- | --- | --- | --- | --- | --- | --- | --- | --- | --- | --- | --- | --- | --- | --- | --- | --- | --- | --- | --- |
| CC#CC(=O)N1CCN(c2nc(-c3ccc(Oc4ccccc4)cc3)c(C(N)=O)s2)CC1 | 0.75 | 0.87 | 0.18 | 0.5 | 0.22 | 0.4 | 0.44 | 0.41 | 0.66 | 0.43 | 0.74 | 0.6 | 0.64 | 0.5 | 0.82 | 0.55 | 0.92 | 0.94 | 0.69 | 0.94 | Growth Rate (Fibroblast; 0 h, replicate number 1): 0.51; Growth Rate (Fibroblast; 18 h, replicate number 1): 0.52; Growth Rate (Fibroblast; 24 h, replicate number 1): 0.32; Growth Rate (HEK-293T; 0 h, replicate number 2): -0.85; Growth Rate (HEK-293T; 18 h, replicate number 1): 0.61; Growth Rate (HEK-293T; 24 h, replicate number 1): 0.66; Growth Rate (U2OS; 0 h, replicate number 1): 0.94; Growth Rate (U2OS; 18 h, replicate number 1): 0.66 |
| Oc1c(-c2cccnc2)cnn1-c1ccccn1 | 0.86 |  |  |  |  | 0.44 | 0.59 | 0.91 |  |  |  |  |  | 0.87 |  |  |  |  | 0.84 |  | Growth Rate (Fibroblast; 24 h, replicate number 1): 0.87; Growth Rate (HEK-293T; 0 h, replicate number 1): 0.54; Growth Rate (HEK-293T; 0 h, replicate number 2): -0.2 |
| FC(F)(F)c1ccc(Nc2ncnc3cc(-c4ncccc4C(F)(F)F)ccc23)cc1 [NGD-8243] |  | 0.97 | -1 | -1 | -0.24 | 0.27 | 0.37 |  |  |  | 0.89 | 0.92 | 0.88 |  | 0.82 | 0.94 | 0.71 | 0.8 | 1 | 0.88 | Growth Rate (U2OS; 18 h, replicate number 1): 0.96 |
| CC(=O)N1CCN([C@H]2CCC[C@@H](NC(=O)c3cc4c(F)ccc(C)c4[nH]3)C2)CC1.O=C(O)C(F)(F)F | -0.08 |  | 0.42 |  | 0.88 | 0.88 | 0.9 | 0.9 | 0.46 | 0.75 | 0.4 | 0.68 | 0.48 |  | 0.95 | 0.84 | 0.96 | 0.94 | 0.99 | 0.88 | Growth Rate (Fibroblast; 0 h, replicate number 1): -0.07; Growth Rate (HEK-293T; 0 h, replicate number 1): 0.94; Growth Rate (HEK-293T; 0 h, replicate number 2): -0.6; Growth Rate (U2OS; 0 h, replicate number 1): 0.28; Growth Rate (U2OS; 0 h, replicate number 2): 0.78 |
| Cc1nnsc1C(=O)Nc1ccc(-n2nc(C(F)(F)F)cc2C(F)(F)F)cc1 | 0.89 | 0.37 | -0.36 | -1 | 0.73 | 0.94 | 0.74 | 0.1 | -0.01 | 0.96 | 0.28 | 0.39 | 0.42 | 0.52 | -0.02 | 0.51 | 0.42 | 0.63 | 0.9 | 0.68 | Growth Rate (HEK-293T; 18 h, replicate number 1): 0.7; Growth Rate (HEK-293T; 24 h, replicate number 1): 0.58; Growth Rate (U2OS; 0 h, replicate number 2): -0.95; Growth Rate (U2OS; 18 h, replicate number 1): 0.97 |
| Cc1nc2ccc(Cl)cc2c(-c2ccccc2)c1CC(=O)O.Cl |  |  |  |  | 0.53 | 0.88 | 0.96 |  |  |  |  |  |  | 0.43 |  |  | 0.93 |  |  |  | Growth Rate (HEK-293T; 0 h, replicate number 1): 0.38; Growth Rate (U2OS; 0 h, replicate number 1): 0.45 |
| O=C(NC[C@@H]1[C@H]2CN(C(=O)OCc3cc(C(F)(F)F)cc(C(F)(F)F)c3)C[C@@H]12)c1ccc2[nH]nnc2c1 [BI 2545] | -0.7 | 0.33 | -0.08 |  | 0.94 |  |  | -0.09 | -0.7 | 0.5 | 0.56 | 0.94 | 0.91 | 0.88 | -0.56 |  | -0.13 | 0.23 |  | 0.42 | Growth Rate (HEK-293T; 18 h, replicate number 1): 0.6; Growth Rate (HEK-293T; 24 h, replicate number 1): 0.76; Growth Rate (U2OS; 0 h, replicate number 2): -0.98 |

— ChEMBL document CHEMBL5303304, “EUbOPEN Chemogenomics Library - IncuCyte” (2023)
